Measured values: patent publication US20130122051A1, “Methods of preparing progesterone pharmaceutical compositions” (PHARMACEUTICS INTERNATIONAL, INC., priority 2011, published 2013)

Experiment: particle size measured using a MALVERN MASTERSIZER particle size analyzer
Assay type: physicochemical
Details: starting progesterone particles before milling
Protocol: Samples of each of the first, second, and third pass wet-milled progesterone compositions prepared under the various milling conditions are collected and the particle size (μm) is measured using a MALVERN MASTERSIZER particle size analyzer (Malvern Instruments, Westborough Mass.). Saturated, filtered, progesterone in sunflower oil is used as the diluent. “Initial” refers to unmilled progesterone suspension. “% Beads” refers to the volume of milling chamber filled with milling media (beads). “Input” refers to the pump setting. “Output” refers to the product (gm/min) received from the mill.

CC(=O)[C@H]1CC[C@H]2[C@@H]3CCC4=CC(=O)CC[C@]4(C)[C@H]3CC[C@]12C [unmicronized progesterone, pregn-4-ene-3,20-dione]
D90: 220 μm
